Values joined by “and” are separate entries in the source; they are usually repeats but may differ in a detail not shown here. Equal values may be shown once.
Assays:
[1] = Serum and intratumor drug concentration at experimental endpoint, DLD1 model; type: in vivo, mice; details: for concentration at 1 h / Kp at 1 h: Swiss Nu/nu, mouse, oral; for concentration at 1 h: 1h post-treatment at endpoint (day 15); for Kp at 1 h: tumor vs serum, read-out: ratio tumor vs serum; for Kp at 1 h / ratio ODC vs single drug: DLD1 model
Description: (§1) At the experimental endpoint, plasma and tumors were collected 1h post‐treatment and part of the tumor tissue was used to determine the intratumor drug concentrations. Plasma and tumor samples were analyzed using the same LC‐MS/MS method used for drug determination in DBS. Before analysis, tumor tissues were homogenized in a 1 mL mixture of water/acetonitrile (30/70). Hundred uL of homogenates were transferred into new tubes and 50 µL of acetonitrile, as well as 50 µL of a mix of internal standards in MeOH were added. Tubes were vortexed and centrifuged for 10 min at 9,000 rpm. The supernatant (100 µL) was evaporated under nitrogen and reconstituted in 100 µL of acetonitrile with 0.1% formic acid/water with 0.1% formic acid (30/70). 10 µL was then injected into the LC‐MS/MS system. Plasma samples were spotted onto the same paper used for whole blood analysis and were extracted and analyzed using the same methods as used for DBS.

[2] = Pharmacokinetics, dried blood spot LC-MS/MS, mice with SW620 tumors; type: in vivo; details: for Tmax / AUC(0-t) / Cmax: Swiss Nu/nu, mouse, whole blood (dried blood spot), po, regorafenib 30, vemurafenib 75, GDC-0994 10 mg/kg; for AUC(0-t) / Cmax: whole blood, mean ± SD; for AUC(0-t): oral, read-out: AUC0-24h; for increase of AUC as part of the ODC vs single-drug treatment: mice bearing SW620 tumors, AUC0-24h
Description: (§2) The pharmacokinetic (PK) study was performed using the dried blood spot method. Mice were treated with CTRL, ODCs, and corresponding monotherapies as described above. To determine the disposition in blood in the first 24h, blood samples (5 µL/mouse) were collected from the tail vein (n = 4 mice) at 2h, 4h, 8h, and 24h time points and transferred onto paper (a filter paper 903 protein saver card from Whatman (MA, USA)). A disk with the entire spot was punched from the paper card and transferred to the HPLC vial tube. Hundred µL of MeOH containing a mix of internal standards was added, and the tube was vortex‐mixed for about 1 min before injecting 10 µL into the LC‐MS/MS system. The LC‐MS/MS system consisted of an API 4,000 triple quadrupole mass spectrometer (AB sciex, Concord, ON, Canada) controlled by analyst 1.6.1 software. The mass spectrometer was operated in the multiple reaction monitoring (MRM) mode with positive electrospray ionization. The instrument was coupled with an Agilent series 1100 (Waldbronn, Germany) LC system. Chromatography was performed on a Phenomenex Kinetex C18 analytical column (50 mm x 2.1 mm, 2.6 um; Torrance, CA, USA). The flow rate was 0.5 mL/min using gradient elution conditions. The method was fully validated before application to this pharmacokinetic study.

DLD1 tumors = assay: Subcutaneous xenograft tumor growth; type: in vivo, Swiss nu/nu mice
Description: All procedures including animal use were performed in accordance with the Institutional Ethical Committee of Animal Care in Geneva and the Swiss Cantonal Veterinary Office (Authorization number GE‐136‐19). Briefly, female and male Swiss nu/nu mice aged 6–8 weeks were obtained from Charles River (Écully, France). For subcutaneous xenografts mice were inoculated in the left flank with 5x10^6 DLD1 or SW620 cells suspended in 100 µL of cell culture medium, supplemented with 1% FBS.
Drugs were administered through oral gavage based on average body weight of the males (100 µL/mouse) and females (80 µL/mouse) at various concentrations, see Tables S10 and S11.
Solution A: step (1) 30% PEG 400 + 5% propylene glycol + 0.5% Tween 80 and (2) 64.5% sterile H2O. Solution B: step (1) 10% DMSO, (2) 30% PEG 300 + 5% Tween 80 and (3) 55% sterile H2O. […] FOLFOX was administered as 6 mg/kg oxaliplatin two hours before administration of 90 mg/kg leucovorin and 50 mg/kg (DLD1) or 25 mg/kg (SW620) 5‐fluorouracil at day 1 and a repeat of 5‐fluorouracil dosing on day 2.
The Bliss independence model can be used to evaluate the drug interaction potential of a drug mixture. […] The model is based on the probability theory and requires the drug activity of each drug at the selected dose to predict the inhibition rate (IR) at additive doses.

[3] = Serum and intratumor drug concentration at experimental endpoint, SW620 model; type: in vivo, mice; details: for concentration at 1 h / Kp at 1 h: Swiss Nu/nu, mouse, oral; for concentration at 1 h: 1h post-treatment at endpoint (day 19); for Kp at 1 h: tumor vs serum, read-out: ratio tumor vs serum; for Kp at 1 h / ratio ODC vs single drug: SW620 model
Description: as §1

[4] = Pharmacokinetics, dried blood spot LC-MS/MS, mice with DLD1 tumors; type: in vivo; details: for Tmax / AUC(0-t) / Cmax: Swiss Nu/nu, mouse, whole blood (dried blood spot), po, regorafenib 15, erlotinib 12.5, selumetinib 5, vemurafenib 75 mg/kg; for AUC(0-t) / Cmax: whole blood, mean ± SD; for AUC(0-t): oral, read-out: AUC0-24h; for increase of AUC as part of the ODC vs single-drug treatment: mice with DLD1 tumors, AUC0-24h
Description: as §2

[5] = Clinical plasma pharmacokinetics in patients, plasma concentration limit calculation; type: in vivo; details: average plasma concentration calculated from AUC0-24h in patients
Description: To select for clinically relevant doses, the clinically attainable drug concentration measured in the blood plasma of patients after treatment is used to calculate the concentration limit for in vitro experiments. […] The average drug concentration is calculated from the AUC0–24h and is implemented as the plasma concentration limit (PCL) which drug dose selection must remain below for in vitro experiments. If a drug is FDA approved, the AUC0–24h selected is the one corresponding to the recommended dose in clinical practice. If a drug is in clinical trials, the AUC0–24h selected is the one corresponding to the maximum tolerated dose in early stage clinical trials. Note, experiments were conducted with the most current PCL calculated from the AUC0–24h information available at the start of experiments (December 2017), see Table S4.

[6] = serum, as part of ODC, regorafenib 15, erlotinib 12.5, selumetinib 5, vemurafenib 75 mg/kg, read-out: concentration serum
[7] = serum, single drug, regorafenib 15, erlotinib 12.5, selumetinib 5, vemurafenib 75 mg/kg, read-out: concentration serum
[8] = tumor (DLD1), as part of ODC, DLD1 tumor, doses as E156, read-out: concentration tumor
[9] = tumor (DLD1), single drug, DLD1 tumor, doses as E156, read-out: concentration tumor
[10] = given as part of SW620-specific ODC
[11] = selumetinib 1 mg/kg, Exp 6, Day 18
[12] = selumetinib 5 mg/kg, Exp 5, Day 16
[13] = selumetinib 5 mg/kg, Exp 7, Day 25
[14] = selumetinib 10 mg/kg, Exp 5, Day 16
[15] = selumetinib 25 mg/kg, Exp 3, Day 13
[16] = serum, as part of ODC, regorafenib 30, selumetinib 0.2, vemurafenib 75, GDC-0994 10 mg/kg, read-out: concentration serum
[17] = serum, single drug, regorafenib 30, selumetinib 0.2, vemurafenib 75, GDC-0994 10 mg/kg, read-out: concentration serum
[18] = tumor (SW620), as part of ODC, SW620 tumor, doses as E164, read-out: concentration tumor
[19] = tumor (SW620), single drug, SW620 tumor, doses as E164, read-out: concentration tumor
[20] = given as part of DLD1-specific ODC
[21] = regorafenib 15 mg/kg, Exp 5, Day 16
[22] = regorafenib 30 mg/kg, Exp 2, Day 14
[23] = regorafenib 30 mg/kg, Exp 5, Day 16
[24] = regorafenib 50 mg/kg, Exp 3, Day 13

concentration at 1 h [1, 6] [ng/mL] | concentration at 1 h [1, 7] [ng/mL] | concentration at 1 h [1, 8] [ng/g] | concentration at 1 h [1, 9] [ng/g] | Kp at 1 h ([1]; as part of ODC) | Kp at 1 h ([1]; single drug) | Tmax [2, 10] [h] | AUC(0-t) [2, 10] [ng·h/mL] | Cmax [2, 10] [ng/mL] | Tmax ([2]; mono) [h] | AUC(0-t) ([2]; mono) [ng·h/mL] | Cmax ([2]; mono) [ng/mL] | increase of AUC as part of the ODC vs single-drug treatment [2] [x] | concentration at 1 h [3, 16] [ng/mL] | concentration at 1 h [3, 17] [ng/mL] | concentration at 1 h [3, 18] [ng/g] | concentration at 1 h [3, 19] [ng/g] | Kp at 1 h ([3]; as part of ODC) | Kp at 1 h ([3]; single drug) | Tmax [4, 20] [h] | Compound | also measured
3490 ± 900 | 2500 ± 1080 | 4530 ± 1950 | 1980 ± 660 | 1.3 | 0.79 | 2 | 890 ± 130 | 230 ± 80 | 2 | 770 ± 140 | 240 ± 80 | 1.2 | 280 ± 200 | 410 ± 350 | 220 ± 100 | 560 ± 90 | 0.77 | 1.39 | 2 | Cn1cnc2c(F)c(Nc3ccc(Br)cc3Cl)c(C(=O)NOCCO)cc21 [selumetinib] | % CTRL (tumor volume) (DLD1 tumors; [11]): 74 29 12 % CTRL; Volume (DLD1 tumors; [11]): 366 142 58 mm^3; % CTRL (tumor volume) (DLD1 tumors; [12]): 37 39 20 % CTRL; Volume (DLD1 tumors; [12]): 237 234 125 mm^3; % CTRL (tumor volume) (DLD1 tumors; [13]): 67 50 25 % CTRL; Volume (DLD1 tumors; [13]): 408 223 79 mm^3; % CTRL (tumor volume) (DLD1 tumors; selumetinib 10 mg/kg, Exp 4, Day 16): 82 49 22 % CTRL; % CTRL (tumor volume) (DLD1 tumors; [14]): 33 18 8 % CTRL; Volume (DLD1 tumors; [14]): 213 117 52 mm^3; % CTRL (tumor volume) (DLD1 tumors; [15]): 49 33 13 % CTRL; Volume (DLD1 tumors; [15]): 168 112 46 mm^3; % CTRL (tumor volume) (DLD1 tumors; selumetinib 50 mg/kg, Exp 2, Day 14): 39 16 7 % CTRL; AUC(0-t) [4, 20]: 24800 ± 8250 ng·h/mL; Cmax [4, 20]: 3830 ± 1640 ng/mL; Tmax ([4]; mono): 2 h; AUC(0-t) ([4]; mono): 15200 ± 7590 ng·h/mL; Cmax ([4]; mono): 1220 ± 330 ng/mL; increase of AUC as part of the ODC vs single-drug treatment [4]: 1.6 x; PCL (plasma concentration limit) [5]: 0.60 µM and 0.6 µM
1830 ± 540 | 880 ± 250 | 8670 ± 5530 | 1540 ± 680 | 4.74 | 1.76 | 4 | 22200 ± 1830 | 1610 ± 220 | 4 | 9860 ± 1930 | 710 ± 260 | 2.2 | 6600 ± 2800 | 2220 ± 70 | 1820 ± 770 | 1330 ± 230 | 0.28 | 0.6 | 4 | CNC(=O)c1cc(Oc2ccc(NC(=O)Nc3ccc(Cl)c(C(F)(F)F)c3)c(F)c2)ccn1 [regorafenib] | ratio ODC vs single drug ([1]; serum): 2.09; ratio ODC vs single drug ([1]; tumor): 5.62; % CTRL (tumor volume) (DLD1 tumors; [21]): 87 75 34 % CTRL; Volume (DLD1 tumors; [21]): 559 479 214 mm^3; % CTRL (tumor volume) (DLD1 tumors; regorafenib 15 mg/kg, Exp 7, Day 15): 96 24 38 % CTRL; % CTRL (tumor volume) (DLD1 tumors; [22]): 85 46 20 % CTRL; Volume (DLD1 tumors; [22]): 594 320 143 mm^3; % CTRL (tumor volume) (DLD1 tumors; [23]): 63 56 25 % CTRL; Volume (DLD1 tumors; [23]): 404 358 160 mm^3; % CTRL (tumor volume) (DLD1 tumors; [24]): 135 76 29 % CTRL; Volume (DLD1 tumors; [24]): 465 261 99 mm^3; ratio ODC vs single drug ([3]; serum): 2.97; ratio ODC vs single drug ([3]; tumor): 1.37; AUC(0-t) [4, 20]: 49400 ± 2980 ng·h/mL; Cmax [4, 20]: 3380 ± 490 ng/mL; Tmax ([4]; mono): 8 h; AUC(0-t) ([4]; mono): 17500 ± 5790 ng·h/mL; Cmax ([4]; mono): 1190 ± 690 ng/mL; increase of AUC as part of the ODC vs single-drug treatment [4]: 2.8 x; PCL (plasma concentration limit) [5]: 4.34 µM and 4.3 µM

From PMC7607171, “Optimized low‐dose combinatorial drug treatment boosts selectivity and efficacy of colorectal carcinoma treatment” (Molecular Oncology, 2020)
